Reference: patent US4731109A, “Herbicidal 2-haloacetanilides” (Monsanto Company, priority 1982, dated 1988)

Tests used:
corn = assay: Greenhouse pre-emergence GR15/GR85 selectivity test; assay type: in vivo; details: Table IV
From the text: (§1) A good grade of top soil is placed in aluminum pans and compacted to a depth of three-eighths to one-half inch from the top of the pan. On the top of the soil is placed a number of seeds or vegetative propagules of various plant species. The soil required to level fill the pans after seeding or adding vegetative propagules is weighed into a pan. The soil and a known amount of the active ingredient applied in a solvent or as a wettable powder suspension are thoroughly mixed, and used to cover the prepared pans. After treatment, the pans are given an initial overhead irrigation of eater, equivalent to one-fourth inch (0.64 cm) rainfall, then watered by subirrigation as need to give adequate moisture for germination and growth. As an alternative procedure, the overhead irrigation may be omitted. Observations are made about 2-3 weeks after seeding and treatment.
(§2) In the discussion and tables of data below, reference is made to herbicide application rates symbolized as "GR15 " and "GR85 "; these rates are given in kilograms per hectare (kg/ha) which are convertible into pounds per acre (lbs/A) by dividing the kg/ha rate by 1.12.
(§3) A further guide to the effectiveness of a chemical as a selective herbicide is the "selectivity factor" ("SF") for a herbicide in given crops and weeds. The selectivity factor is a measure of the relative degree of crop safety and weed injury and is expressed in terms of the GR15 /GR85 ratio, i.e., the GR15 rate for the crop divided by the GR85 rate for the weed, both rates in kg/ha (lb/A). In the tables below, selectivity factors are shown in parenthesis following the GR85 rate for each weed; the symbol "NS" indicates "non-selective". Marginal or undetermined selectivity is indicated by a dash (--).
In Table IV pre-emergence herbicidal activity data are presented comparing the relative efficacy of the invention compounds and said prior art compounds as selective herbicides against the resistant and troublesome perennial weeds quackgrass and yellow nutsedge in soybeans and corn, respectively. These weeds are commonly associated with such major crops as corn and soybeans. The test data in Table IV were obtained under identical procedural conditions and represent two replicate runs (except for the compound of Example 9 which was present in one comparative test). The test procedure was the same as described for Tables II and III but modified by the application of an initial overhead irrigation equivalent to 1/4" (0.64 cm) rainfall; subsequent watering was accomplished by subirrigation. "NS" means non-selective within the test limits.
(§4) Additionally, pre-emergence herbicidal data from other tests have established that compounds according to this invention also selectively suppress quackgrass, yellow nutsedge and/or other weeds in one or more of the crops cotton, peanuts, bush beans and/or rape. For example, in Table VI are presented data showing the herbicidal selectivity of the compounds of Examples 1 and 2 against quackgrass in rape and snap beans. Unless otherwise noted; greenhouse tests in Table VI and in other tables below involved herbicide treatments by soil incorporation and an initial overhead irrigation followed by subirrigation as described above.

rape = assay: as above; assay type: in vivo; details: Table XV
From the text: as §1, §2, §3, §4
(§5) In another greenhouse test, the compounds of Examples 3-5, 9 and 10 were tested for their herbicidal efficacy against a variety of resistant annual and perennial weeds in rape.

purple nutsedge = assay: as above; assay type: in vivo; details: Table XV
From the text: as §1, §2, §3, §4
In other greenhouse tests, compounds according to this invention have shown selective control of a variety of annual and perennial weeds in various crops. As further illustrative, the compound of Example 1 selectively controlled purple nutsedge in both corn nd soybeans, the respective crop/weed GR15 /GR85 ratios (expressed in kg/ha) being 0.67/0.25 (S.F.=2.7) in corn and 1.1/0.25 (S.F.=4.5) in soybeans. The compound of Example 8 has shown selective control of yellow nutsedge and quackgrass in corn and soybeans. The respective crop/yellownutsedge GR15 /GR85 ratios being >2.2/0.95 (S.F.=2.5) in corn; 2.2/0.5 (SF=4.5) in soybeans and the respective GR15 /GR85 ratios for both corn and soybeans in quackgrass being >2.2/0.5 (S.F.=4.5). In a test against yellow nutsedge in cotton, the GR15 /GR85 ratio (average of two replicates) was 2.0/0.95 (S.F.=2).
as §5

Texas panicum = assay: as above; assay type: in vivo; details: Table XVI
From the text: as §1, with “After treatment, the pans are given an initial overhead irrigation of eater, equivalent to one-fourth inch (0.64 cm) rainfall, then watered by subirrigation as need to give adequate moisture for germination and growth.” left out
as §3
(§6) Unless otherwise noted; greenhouse tests in Table VI and in other tables below involved herbicide treatments by soil incorporation and an initial overhead irrigation followed by subirrigation as described above.

alexandergrass = assay: as above; assay type: in vivo; details: Table XV
From the text: as §1, with “After treatment, the pans are given an initial overhead irrigation of eater, equivalent to one-fourth inch (0.64 cm) rainfall, then watered by subirrigation as need to give adequate moisture for germination and growth.” left out
as §3, §6

fall panicum = assay: as above; assay type: in vivo; details: Table XVI
From the text: as §1, with “After treatment, the pans are given an initial overhead irrigation of eater, equivalent to one-fourth inch (0.64 cm) rainfall, then watered by subirrigation as need to give adequate moisture for germination and growth.” left out
as §3, §6

itchgrass = assay: as above; assay type: in vivo; details: Table XVI
From the text: as §1, with “After treatment, the pans are given an initial overhead irrigation of eater, equivalent to one-fourth inch (0.64 cm) rainfall, then watered by subirrigation as need to give adequate moisture for germination and growth.” left out
as §3, §6

red rice = assay: as above; assay type: in vivo; details: Table XVI
From the text: as §1, with “After treatment, the pans are given an initial overhead irrigation of eater, equivalent to one-fourth inch (0.64 cm) rainfall, then watered by subirrigation as need to give adequate moisture for germination and growth.” left out
as §3, §6

seedling johnsongrass = assay: as above; assay type: in vivo; details: Table XVI
From the text: as §1, with “After treatment, the pans are given an initial overhead irrigation of eater, equivalent to one-fourth inch (0.64 cm) rainfall, then watered by subirrigation as need to give adequate moisture for germination and growth.” left out
as §3, §6

shattercane = assay: as above; assay type: in vivo; details: Table XVI
From the text: as §1, with “After treatment, the pans are given an initial overhead irrigation of eater, equivalent to one-fourth inch (0.64 cm) rainfall, then watered by subirrigation as need to give adequate moisture for germination and growth.” left out
as §3, §6

wild proso millet = assay: as above; assay type: in vivo, wild proso millet (panicum milicaeum); details: Table XVI
From the text: as §1, with “After treatment, the pans are given an initial overhead irrigation of eater, equivalent to one-fourth inch (0.64 cm) rainfall, then watered by subirrigation as need to give adequate moisture for germination and growth.” left out
as §3, §6

Quackgrass = assay: Herbicidal effect in a variety of soil types; assay type: in vivo; details: Table XVII B; for selectivity factor (GR15/GR85): in soybeans
soybeans = assay: Herbicidal effect in a variety of soil types; assay type: in vivo; details: Table XVII B

Cc1cccc(C(F)(F)F)c1N(COC(C)C)C(=O)CCl [Example 4, N--(isopropoxymethyl)-2'-trifluoromethyl-6'-methyl-2-chloroacetanilide]
GR15 (corn; Replicate #1): 1.7 Kg/Ha | GR15 (corn; Replicate #2): 2.0 Kg/Ha | GR15 Rate (rape): > 1.12 Kg/Ha | GR85 Rate (purple nutsedge): 0.25 Kg/Ha | selectivity factor (GR15/GR85) (purple nutsedge; in rape): > 4.5 | GR85 Rate (Texas panicum): 0.56 Kg/Ha | selectivity factor (GR15/GR85) (Texas panicum; in lima beans): > 2 | selectivity factor (GR15/GR85) (Texas panicum; in peanuts): 1.8 | GR85 Rate (alexandergrass): 0.42 Kg/Ha | selectivity factor (GR15/GR85) (alexandergrass; in rape): > 2.7 | GR85 Rate (fall panicum): 0.13 Kg/Ha | selectivity factor (GR15/GR85) (fall panicum; in lima beans): > 8.6 | selectivity factor (GR15/GR85) (fall panicum; in peanuts): 7.5 | GR85 Rate (itchgrass): 0.50 Kg/Ha | selectivity factor (GR15/GR85) (itchgrass; in lima beans): > 2.2 | selectivity factor (GR15/GR85) (itchgrass; in peanuts): 2 | GR85 Rate (red rice): 0.42 Kg/Ha | selectivity factor (GR15/GR85) (red rice; in lima beans): > 2.7 | selectivity factor (GR15/GR85) (red rice; in peanuts): 2.3 | GR85 Rate (seedling johnsongrass): 0.51 Kg/Ha | selectivity factor (GR15/GR85) (seedling johnsongrass; in lima beans): > 2.2 | selectivity factor (GR15/GR85) (seedling johnsongrass; in peanuts): 1.9 | GR85 Rate (shattercane): 0.51 Kg/Ha | selectivity factor (GR15/GR85) (shattercane; in lima beans): > 2.2 | selectivity factor (GR15/GR85) (shattercane; in peanuts): 1.9 | GR85 Rate (wild proso millet): 0.47 Kg/Ha | selectivity factor (GR15/GR85) (wild proso millet; in lima beans): > 2.4 | selectivity factor (GR15/GR85) (wild proso millet; in peanuts): 2.1 | GR85 (Quackgrass; Drummer silty clay): 0.11 Kg/Ha | GR85 (Quackgrass; Florida muck): 0.67 Kg/Ha | GR85 (Quackgrass; Florida sand): 0.25 Kg/Ha | GR85 (Quackgrass; Ray silt loam): 0.13 Kg/Ha | GR85 (Quackgrass; Sarpy silty clay): 0.39 Kg/Ha | GR85 (Quackgrass; Wabash silty clay): 0.24 Kg/Ha | selectivity factor (GR15/GR85) (Quackgrass; Drummer silty clay): 20 | selectivity factor (GR15/GR85) (Quackgrass; Florida muck): > 3 | selectivity factor (GR15/GR85) (Quackgrass; Florida sand): 9 | selectivity factor (GR15/GR85) (Quackgrass; Ray silt loam): 23 | selectivity factor (GR15/GR85) (Quackgrass; Sarpy silty clay): 5.5 | selectivity factor (GR15/GR85) (Quackgrass; Wabash silty clay): 12.5 | GR15 (soybeans; Drummer silty clay): 2.2 Kg/Ha | GR15 (soybeans; Florida muck): > 2.2 Kg/Ha | GR15 (soybeans; Florida sand): 2.2 Kg/Ha | GR15 (soybeans; Ray silt loam): 3.0 Kg/Ha | GR15 (soybeans; Sarpy silty clay): 2.2 Kg/Ha | GR15 (soybeans; Wabash silty clay): 3.0 Kg/Ha
